Results: PubChem BioAssay (NCI)
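Method: 48-hour compound exposure of cells in 96-well plates, five concentrations, linear interpolation of endpoints. TGI marks complete inhibition of growth.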

Columns and labels:
Test in all cases: inhibition of tumour cell growth, NCI panel, 48 h
CCRF-CEM leukemia = system: CCRF-CEM leukemia
UACC-62 melanoma = system: UACC-62 melanoma
HCT-15 colon = system: HCT-15 colon
EKVX NSCLC = system: EKVX NSCLC
MCF7 breast = system: MCF7 breast
DU-145 prostate = system: DU-145 prostate
OVCAR-4 ovarian = system: OVCAR-4 ovarian
SF-268 CNS = system: SF-268 CNS
OVCAR-5 ovarian = system: OVCAR-5 ovarian
SNB-19 CNS = system: SNB-19 CNS
HOP-92 NSCLC = system: HOP-92 NSCLC
UO-31 renal = system: UO-31 renal
LOX IMVI melanoma = system: LOX IMVI melanoma
IGROV1 ovarian = system: IGROV1 ovarian
TK-10 renal = system: TK-10 renal
SF-539 CNS = system: SF-539 CNS
RPMI-8226 leukemia = system: RPMI-8226 leukemia
HCC-2998 colon = system: HCC-2998 colon
HOP-62 NSCLC = system: HOP-62 NSCLC
NCI-H460 lung = system: NCI-H460 lung
SN12C renal = system: SN12C renal
MDA-N = system: MDA-N
RXF 393 renal = system: RXF 393 renal
K-562 leukemia = system: K-562 leukemia
SNB-75 CNS = system: SNB-75 CNS
SF-295 CNS = system: SF-295 CNS
U251 CNS = system: U251 CNS
SK-MEL-28 melanoma = system: SK-MEL-28 melanoma
SK-OV-3 ovarian = system: SK-OV-3 ovarian
UACC-257 melanoma = system: UACC-257 melanoma
CAKI-1 renal = system: CAKI-1 renal
NCI/ADR-RES ovarian = system: NCI/ADR-RES ovarian
SW-620 colon = system: SW-620 colon
NCI-H522 lung = system: NCI-H522 lung
NCI-H23 lung = system: NCI-H23 lung
NCI-H226 lung = system: NCI-H226 lung
SK-MEL-2 melanoma = system: SK-MEL-2 melanoma
HT29 colon = system: HT29 colon
OVCAR-3 ovarian = system: OVCAR-3 ovarian
MDA-MB-231 breast = system: MDA-MB-231 breast
OVCAR-8 ovarian = system: OVCAR-8 ovarian
MALME-3M melanoma = system: MALME-3M melanoma
A549 NSCLC = system: A549 NSCLC
SR leukemia = system: SR leukemia
COLO 205 colon = system: COLO 205 colon
786-0 renal = system: 786-0 renal
MOLT-4 leukemia = system: MOLT-4 leukemia
HCT-116 colon = system: HCT-116 colon
M14 melanoma = system: M14 melanoma
MDA-MB-435 = system: MDA-MB-435
SK-MEL-5 melanoma = system: SK-MEL-5 melanoma
ACHN renal = system: ACHN renal
BT-549 breast = system: BT-549 breast
KM12 colon = system: KM12 colon
PC-3 prostate = system: PC-3 prostate
HS 578T breast = system: HS 578T breast
HL-60(TB) leukemia = system: HL-60(TB) leukemia

For `COC(=O)[C@@]12CCCC(=O)[C@@H]1[C@H]1CCC[C@H]12`, the TGI (CCRF-CEM leukemia) was > 100 µM, the TGI (UACC-62 melanoma) was > 100 µM and the TGI (HCT-15 colon) was > 100 µM. For the same compound, the TGI (EKVX NSCLC) was > 100 µM, the TGI (MCF7 breast) was > 100 µM and the TGI (DU-145 prostate) was > 100 µM. The TGI (OVCAR-4 ovarian) was > 100 µM, the TGI (SF-268 CNS) was > 100 µM and the TGI (OVCAR-5 ovarian) was > 100 µM. For the same compound, the TGI (SNB-19 CNS) was > 100 µM, the TGI (HOP-92 NSCLC) was > 100 µM and the TGI (UO-31 renal) was > 100 µM. For the same compound, the TGI (LOX IMVI melanoma) was > 100 µM, the TGI (IGROV1 ovarian) was > 100 µM and the TGI (TK-10 renal) was > 100 µM. The TGI (SF-539 CNS) was > 100 µM, the TGI (RPMI-8226 leukemia) was > 100 µM and the TGI (HCC-2998 colon) was > 100 µM. The TGI (HOP-62 NSCLC) was > 100 µM, the TGI (NCI-H460 lung) was > 100 µM and the TGI (SN12C renal) was > 100 µM. The TGI (MDA-N) was > 100 µM, the TGI (RXF 393 renal) was > 100 µM and the TGI (K-562 leukemia) was > 100 µM. For the same compound, the TGI (SNB-75 CNS) was > 100 µM, the TGI (SF-295 CNS) was > 100 µM and the TGI (U251 CNS) was > 100 µM. For the same compound, the TGI (SK-MEL-28 melanoma) was > 100 µM, the TGI (SK-OV-3 ovarian) was > 100 µM and the TGI (UACC-257 melanoma) was > 100 µM. The TGI (CAKI-1 renal) was > 100 µM, the TGI (NCI/ADR-RES ovarian) was > 100 µM and the TGI (SW-620 colon) was > 100 µM. The TGI (NCI-H522 lung) was > 100 µM, the TGI (NCI-H23 lung) was > 100 µM and the TGI (NCI-H226 lung) was > 100 µM. The TGI (SK-MEL-2 melanoma) was > 100 µM, the TGI (HT29 colon) was > 100 µM and the TGI (OVCAR-3 ovarian) was > 100 µM. For the same compound, the TGI (MDA-MB-231 breast) was > 100 µM, the TGI (OVCAR-8 ovarian) was > 100 µM and the TGI (MALME-3M melanoma) was > 100 µM. For the same compound, the TGI (A549 NSCLC) was > 100 µM, the TGI (SR leukemia) was > 100 µM and the TGI (COLO 205 colon) was > 100 µM. The TGI (786-0 renal) was > 100 µM, the TGI (MOLT-4 leukemia) was > 100 µM and the TGI (HCT-116 colon) was > 100 µM. The TGI (M14 melanoma) was > 100 µM, the TGI (MDA-MB-435) was > 100 µM and the TGI (SK-MEL-5 melanoma) was > 100 µM. The TGI (ACHN renal) was > 100 µM, the TGI (BT-549 breast) was > 100 µM and the TGI (KM12 colon) was > 100 µM. For the same compound, the TGI (PC-3 prostate) was > 100 µM.
`COc1ccc(N=Nc2c(O)ccc3ccccc23)cc1` was tested, and the TGI (CCRF-CEM leukemia) was > 100 µM, the TGI (UACC-62 melanoma) was 36.3 µM and the TGI (HCT-15 colon) was > 100 µM. The TGI (EKVX NSCLC) was 34.8 µM, the TGI (OVCAR-4 ovarian) was 32.3 µM and the TGI (SF-268 CNS) was 37.7 µM. It also gave a TGI (OVCAR-5 ovarian) of 60.6 µM, a TGI (HS 578T breast) of 23.2 µM and a TGI (HOP-92 NSCLC) of 47.7 µM. For the same compound, the TGI (UO-31 renal) was > 100 µM, the TGI (LOX IMVI melanoma) was > 100 µM and the TGI (IGROV1 ovarian) was 24.2 µM. For the same compound, the TGI (TK-10 renal) was 34 µM, the TGI (HOP-62 NSCLC) was 26.7 µM and the TGI (SN12C renal) was > 100 µM. For the same compound, the TGI (MDA-N) was > 100 µM, the TGI (RXF 393 renal) was > 100 µM and the TGI (SNB-75 CNS) was 37.7 µM. The TGI (SF-295 CNS) was 30.1 µM, the TGI (U251 CNS) was 30.6 µM and the TGI (SK-MEL-28 melanoma) was > 100 µM. The TGI (SK-OV-3 ovarian) was 28.1 µM, the TGI (UACC-257 melanoma) was > 100 µM and the TGI (CAKI-1 renal) was > 100 µM. For the same compound, the TGI (NCI/ADR-RES ovarian) was > 100 µM, the TGI (SW-620 colon) was > 100 µM and the TGI (NCI-H522 lung) was 60.9 µM. For the same compound, the TGI (NCI-H23 lung) was 85.2 µM, the TGI (NCI-H226 lung) was 47.6 µM and the TGI (SK-MEL-2 melanoma) was > 100 µM. For the same compound, the TGI (HT29 colon) was 38 µM, the TGI (OVCAR-3 ovarian) was > 100 µM and the TGI (MDA-MB-231 breast) was 96.5 µM. For the same compound, the TGI (OVCAR-8 ovarian) was 29.1 µM, the TGI (MALME-3M melanoma) was 32.9 µM and the TGI (HL-60(TB) leukemia) was > 100 µM. For the same compound, the TGI (A549 NSCLC) was 39.5 µM, the TGI (SR leukemia) was 41.7 µM and the TGI (COLO 205 colon) was > 100 µM. For the same compound, the TGI (786-0 renal) was > 100 µM, the TGI (MOLT-4 leukemia) was > 100 µM and the TGI (HCT-116 colon) was > 100 µM. The TGI (M14 melanoma) was > 100 µM, the TGI (MDA-MB-435) was > 100 µM and the TGI (ACHN renal) was 57.7 µM. The TGI (BT-549 breast) was 56.1 µM, the TGI (KM12 colon) was 24.9 µM and the TGI (PC-3 prostate) was > 100 µM.
